Experimental findings from patent publication US5352685A, “Thieno[3,2-b]pyridine derivatives” (priority 1992, dated 1994) are described below.

Structures can show the parent of a compound that is named as a salt.

The subject of one data set is dog gastric contraction. Nature of the data set: Promoting action of dog gastric contraction. The class given is in vivo, dog (adult mongrel). To be noted: Canis lupus familiaris, iv, 0.5 h; i.v.; starved dogs; contraction for 30-minute interval after dose vs. IMC contraction immediately before; read-out: ED50 (dose developing 50% of the IMC contraction). The method, then:
2) Promoting action of dog gastric contraction An implant-type strain-gauge transducer was sutured onto the serosa at the autrum (about 3 cm above pylorus) of adult mongrel dogs, weighed 11 to 15 kg, so as to determine the contraction of the circular muscle. Two weeks or more after the surgery, the gastric contraction was recorded for analysis with a data processing device. […] The dog was put to starvation for about 16 hours. Ten minutes after the completion of one IMC, a test compound was intravenously administered. The contraction for the 30-minute interval thereafter was represented as a percentage (%) to the IMC contraction having occurred immediately before, and the dose developing the 50% contraction was defined as ED50.

The test system of the next data set is mouse gastric emptying. Nature of the data set: Promoting action of mouse gastric emptying. The class given is in vivo. The following applies: 1 mg/kg, p.o.; 24-hour starved male ddy mice; control group (distilled water) defined as 100%. Here is the method:
Promoting action of mouse gastric emptying Male, ddy mice (body weight; 20 to 25 g) were used. 24-Hour after starvation 1 mg/kg test compounds dissolved in distilled water were orally administered (10 ml/kg). To the control group distilled water was orally administered (10 ml/kg). One hour later, a 2000 ppm phenol red solution (suspended in aqueous 0.5% carboxymethyl cellulose solution) was administered to each mouse (liquid dose; 0.05 ml/mouse). Then, 15 minutes later, the animals were killed to remove the stomachs. The phenol red retained in the stomachs was developed in 20 ml of a 2.75% trisodium phosphate solution, and analyzed with an absorption photometer at a wave length of 540 nm (A). Immediately after the phenol red solution was administered, the animals were killed to quantitatively determine the phenol red left in the stomachs (B). The difference in the amount of phenol red between A and B (B-A) was designated as gastric emptying. The gastric emptying of the test compounds were shown in Table 4 below, provided that the gastric emptying of the control group was defined as 100%.

Data set [1] addresses T1, 5-HT3 (serotonin 3) receptor (Rattus norvegicus, UniProt P35563).
T1 construct: from tissue; host or cells: living anaesthetized male Wistar rat (in vivo; endogenous receptor)
T1 sequence (P35563 24-483): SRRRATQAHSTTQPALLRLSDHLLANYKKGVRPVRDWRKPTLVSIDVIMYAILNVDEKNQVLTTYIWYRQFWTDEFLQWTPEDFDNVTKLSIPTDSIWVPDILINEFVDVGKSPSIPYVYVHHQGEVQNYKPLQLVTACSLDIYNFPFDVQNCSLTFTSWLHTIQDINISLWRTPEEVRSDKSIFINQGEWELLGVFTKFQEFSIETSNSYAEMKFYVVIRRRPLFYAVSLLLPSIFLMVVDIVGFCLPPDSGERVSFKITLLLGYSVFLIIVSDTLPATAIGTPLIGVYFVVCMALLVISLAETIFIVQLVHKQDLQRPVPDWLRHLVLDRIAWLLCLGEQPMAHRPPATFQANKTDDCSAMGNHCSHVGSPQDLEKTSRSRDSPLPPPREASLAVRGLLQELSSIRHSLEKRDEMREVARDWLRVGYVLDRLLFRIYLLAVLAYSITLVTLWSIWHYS
Nature of the data set: 5-HT3 antagonistic action (antagonistic action of Bezold-Jarish reflex) in anesthetized rat. To be noted: iv, 5 min; i.v.; 5-HT 8 μg/kg i.v.; male Wistar rat under urethane anesthesia; read-out: ID50 (dose with inhibition ratio of 50%, Bezold-Jarish reflex). Format: in vivo. The method, then:
3) 5-HT3 antagonistic action (antagonistic action of Bezold-Jarish reflex)
According to the following method, the assessment of a compound in terms of the antagonistic action of Bezold-Jarish reflex triggered by 5-HT was carried out in a rat under anesthesia.
A male Wistar rat, weighed 300 to 400 g, was anesthetized with an intra-parenteral dose of 1.2 g/kg urethane, to monitor the heart rate triggered by electrocardiography. Five minutes after saline was intravenously administered (0.5 ml/kg) to the rat, 5-HT (8 μg/kg) dissolved in saline (0.5 ml/kg) was intravenously administered firstly, to measure the change in […] (A). To the same rat after 10 minutes interval, the test compound was intravenously administered, 5 minutes later 5-HT was administered in the same fashion, to measure the change in heart rate (B). Based on these values, the inhibition ratio of the test compound was calculated by the following formula:
inhibition ratio=(1-B/A)×100
Also, the dose with the inhibition ratio of 50% was defined as the ID50 of the test compound.

Data set [2] in a line: Acute toxicity, oral, mice. Format: in vivo, mouse (male ddy). The following applies: orally 1000 mg/kg; 3 mice per compound; observation 7 days. The method, then:
For the test of acute toxicity, male ddy mice (body weight; 25 to 30 g, 3 mice for one test compound) were used. Test compound of Example 1 or 2 was orally administered at 1000 mg/kg.

For `COc1cc(N)c(Cl)cc1C(=O)NC1CCN2CCCC1C2` (stereo not drawn) [BRL-24924, (endo)-4-amino-5-chloro-2-methoxy-N-[1-azabicyclo-(3.3.1)-non-4-yl]-benzamide hydrochloride, reference compound], the ED50 in the data set on dog gastric contraction was 100 µg/kg.

Turning to `O=C(NC1CN2CCC1CC2)c1cnc2ccsc2c1O` (stereo not shown) [Example 1, N-(1-azabicyclo[2.2.2]oct-3-yl)-7-hydroxythieno[3.2-b]pyridine-6-carboxamide], the “Promoting Action of Gastric Emptying (%)” value in the data set on mouse gastric emptying is 147%. Moreover, the ED50 in the data set with dog gastric contraction was determined as 10 µg/kg; in data set [1] it was 0.15 µg/kg. The “death (acute toxicity)” value in data set [2] was “no death”.

Take `O=C(N[C@H]1CN2CCC1CC2)c1cnc2ccsc2c1O` [Example 2, R-N-(1-azabicyclo[2.2.2]oct-3-yl)-7-hydroxythieno[3.2-b]pyridine-6-carboxamide]: in the data set on mouse gastric emptying, the “Promoting Action of Gastric Emptying (%)” value stood at 185%. In addition, in the data set with dog gastric contraction, the ED50 is 5 µg/kg. Further, in data set [2], the “death (acute toxicity)” value is on record as “no death”.

With `CN1[C@@H]2CC[C@H]1C[C@@H](NC(=O)c1cn(C)c3ccsc3c1=O)C2` [Example 10, (endo)-N-(8-methyl-8-azabicyclo[3.2.1]oct-3-yl)-4,7-dihydro-4-methyl-7-oxothieno[3.2-b]pyridine-6-carboxamide], the “Promoting Action of Gastric Emptying (%)” value with mouse gastric emptying is reported as 140%.

With `Cc1csc2c(O)c(C(=O)NC3CN4CCC3CC4)cnc12` (stereo not shown) [Example 11], the “Promoting Action of Gastric Emptying (%)” value in the data set on mouse gastric emptying was found to be 152%.
